Patent US10770169B2, “Method of providing a treatment to a subject based on a dynamic pathway map” (THE REGENTS OF THE UNIVERSITY OF CALIFORNIA, priority 2010, dated 2020)
“Also recorded” adds a separate entry of the source.

Legend:
[1] = tested on: panel of 55 breast cancer cell lines; assay: Cell growth inhibition assay (Cell Titer Glo, 72 h, 9 doses; GI50, TGI, LC50); assay type: cell-based, human; settings: value is the negative log10 of mol/L
[2] = tested on: luminal, basal, claudin-low and ERBB2AMP breast cancer cell lines; assay: Associations of clinically relevant subtypes and response (non-parametric ANOVA or t-test on GI50 ranks); assay type: cell-based, human; settings: for Subtype specificity: Table 6, most sensitive subtype, FDR p<0.20; for subtype-specific response (sensitivity by transcriptional subtype): GI50 across subtypes
Text: A central premise of this study is that associations between responses and molecular subtypes observed in preclinical cell line analyses will be recapitulated in the clinic in instances where the predictive molecular features in the cell lines are mirrored in human tumors. We established response-subtype associations by using non-parametric ANOVAs to compare […] values across transcriptional and genomics subtypes.
Differences between GI50s of the groups were compared with a non-parametric ANOVA or t-test, as appropriate, on the ranks. We combined the p-values for the three sets of tests and used false discovery rate (FDR) to correct for multiple testing. For the three-sample test, we performed a post-hoc analysis on the compounds with a significant class effect by comparing each group to all others to determine which group was most sensitive. The p-values for the post-hoc test were FDR-corrected together. In all cases, FDR p<0.20 was deemed significant. […] Analyses were performed in R.

[3] = AU565 cell line, censored GI50 values
[4] = BT474 cell line, censored GI50 values
[5] = BT483 cell line, censored GI50 values
[6] = CAMA1 cell line, censored GI50 values
[7] = HCC38 cell line, censored GI50 values
[8] = HCC1395 cell line, censored GI50 values
[9] = HCC1419 cell line, censored GI50 values
[10] = HCC1500 cell line, censored GI50 values
[11] = HCC1806 cell line, censored GI50 values
[12] = HCC1937 cell line, censored GI50 values
[13] = HCC1954 cell line, censored GI50 values
[14] = HCC2185 cell line, censored GI50 values
[15] = SKBR3 cell line, censored GI50 values
[16] = SUM149PT cell line, censored GI50 values
[17] = SUM159PT cell line, censored GI50 values
[18] = SUM1315MO2 cell line, censored GI50 values
[19] = HCC1187 cell line, censored GI50 values

`COc1cc2ncnc(Nc3cccc(Cl)c3)c2cc1OC` [AG1478] showed a GI50 ([1]; 600MPE cell line, censored GI50 values) of 3.99, a GI50 [1, 3] of 4.57 and a GI50 [1, 4] of 6.17. It also gave a GI50 [1, 5] of 5.64, a GI50 ([1]; BT549 cell line, censored GI50 values) of 4.41 and a GI50 [1, 6] of 4.46. The GI50 [1, 7] was 4.03, the GI50 ([1]; HCC202 cell line, censored GI50 values) was 5.75 and the GI50 [1, 8] was 4.57. The GI50 [1, 9] was 5.92, the GI50 [1, 10] was 4.58 and the GI50 [1, 11] was 4.07. For the same compound, the GI50 [1, 12] was 4.88, the GI50 [1, 13] was 5.64 and the GI50 [1, 14] was 4.33. For the same compound, the GI50 ([1]; MDAMB134VI cell line, censored GI50 values) was 4.00, the GI50 ([1]; MDAMB157 cell line, censored GI50 values) was 4.47 and the GI50 ([1]; MDAMB175VII cell line, censored GI50 values) was 6.19. For the same compound, the GI50 ([1]; MDAMB361 cell line, censored GI50 values) was 4.71, the GI50 ([1]; MDAMB436 cell line, censored GI50 values) was 3.99 and the GI50 ([1]; MDAMB468 cell line, censored GI50 values) was 4.02. For the same compound, the GI50 [1, 15] was 4.92, the GI50 [1, 16] was 5.74 and the GI50 [1, 17] was 4.77. It also gave a GI50 [1, 18] of 5.60, a GI50 ([1]; T47D cell line, censored GI50 values) of 4.74 and a GI50 ([1]; UACC893 cell line, censored GI50 values) of 5.65. The GI50 ([1]; cell line 600MPE) was 3.99, the GI50 ([1]; cell line AU565) was 4.57 and the GI50 ([1]; cell line BT474) was 6.17. For the same compound, the GI50 ([1]; cell line BT483) was 5.64, the GI50 ([1]; cell line BT549) was 4.41 and the GI50 ([1]; cell line CAMA1) was 4.46. It also gave a GI50 ([1]; cell line HCC38) of 4.03, a GI50 ([1]; cell line HCC70) of 3.94 and a GI50 ([1]; cell line HCC202) of 5.75. For the same compound, the GI50 ([1]; cell line HCC1143) was 3.78, the GI50 ([1]; cell line HCC1187) was 3.78 and the GI50 ([1]; cell line HCC1395) was 4.57. It also gave a GI50 ([1]; cell line HCC1419) of 5.92, a GI50 ([1]; cell line HCC1428) of 3.78 and a GI50 ([1]; cell line HCC1500) of 4.58. It also gave a GI50 ([1]; cell line HCC1806) of 4.07, a GI50 ([1]; cell line HCC1937) of 4.88 and a GI50 ([1]; cell line HCC1954) of 5.64. For the same compound, the GI50 ([1]; cell line HCC2185) was 4.33, the GI50 ([1]; cell line LY2) was 3.78 and the GI50 ([1]; cell line MDAMB134V) was 4.00. The GI50 ([1]; cell line MDAMB157) was 4.47, the GI50 ([1]; cell line MDAMB175V) was 6.19 and the GI50 ([1]; cell line MDAMB361) was 4.71. For the same compound, the GI50 ([1]; cell line MDAMB415) was 3.78, the GI50 ([1]; cell line MDAMB436) was 3.99 and the GI50 ([1]; cell line MDAMB453) was 3.78. It also gave a GI50 ([1]; cell line MDAMB468) of 4.02, a GI50 ([1]; cell line SKBR3) of 4.92 and a GI50 ([1]; cell line SUM52PE) of 3.78. For the same compound, the GI50 ([1]; cell line SUM149PT) was 5.74, the GI50 ([1]; cell line SUM159PT) was 4.77 and the GI50 ([1]; cell line SUM185PE) was 3.78. It also gave a GI50 ([1]; cell line SUM1315MO) of 5.60, a GI50 ([1]; cell line T47D) of 4.74 and a GI50 ([1]; cell line UACC893) of 5.65. For the same compound, the GI50 ([1]; cell line ZR75B) was 3.78, the GI50 ([1]; cell line ZR751) was 3.78 and the “association of response with ERBB2 amplification” value [2] was “positively associated with ERBB2 amplification”. The Subtype specificity [2] was “ERBB2AMP”.

In the case of `N.N.[Cl][Pt][Cl]` [Cisplatin], the “subtype-specific response (sensitivity by transcriptional subtype)” value [2] is reported as “preferential activity in basal and/or claudin-low cell lines; also recorded: basal cell lines are preferentially sensitive; also recorded: Basal breast cancer cell lines preferentially respond” and the Subtype specificity [2] is reported as “Basal”.

For `C[C@@H](Oc1cc(-n2cnc3ccc(CN4CCN(C)CC4)cc32)sc1C(N)=O)c1ccccc1C(F)(F)F` [GSK461364], the “subtype-specific response (sensitivity by transcriptional subtype)” value [2] was “more active against basal and claudin-low cell lines” and the Subtype specificity [2] was “Basal + Claudin-low”.

For `O=C1NC(=O)/C(=C/c2ccc3nccc(-c4ccncc4)c3c2)S1` [GSK1059615], the Subtype specificity [2] was “Luminal/ERBB2AMP”.

In the case of `COc1ncc(-c2ccc3nccc(-c4ccnnc4)c3c2)cc1NS(=O)(=O)c1ccc(F)cc1F` [GSK2126458], the Subtype specificity [2] is reported as “Luminal/ERBB2AMP”.

In the case of `O=C(CCCCCCC(=O)Nc1ccccc1)NO` [Vorinostat], the Subtype specificity [2] is reported as “Luminal”.

ICRF-193 showed a GI50 [1, 3] of 6.14, a GI50 [1, 7] of 6.54 and a GI50 [1, 19] of 6.05. The GI50 [1, 10] was 4.66, the GI50 [1, 13] was 4.82 and the GI50 [1, 14] was 5.69. For the same compound, the GI50 [1, 15] was 5.22, the GI50 [1, 16] was 4.75 and the GI50 [1, 17] was 6.38. For the same compound, the GI50 [1, 18] was 6.21, the GI50 ([1]; UACC812 cell line, censored GI50 values) was 4.66 and the GI50 ([1]; ZR75B cell line, censored GI50 values) was 6.60. For the same compound, the GI50 ([1]; ZR751 cell line, censored GI50 values) was 6.07, the GI50 ([1]; cell line AU565) was 6.14 and the GI50 ([1]; cell line BT20) was 4.38. For the same compound, the GI50 ([1]; cell line BT474) was 4.30, the GI50 ([1]; cell line CAMA1) was 4.30 and the GI50 ([1]; cell line HCC38) was 6.54. The GI50 ([1]; cell line HCC1143) was 4.30, the GI50 ([1]; cell line HCC1187) was 6.05 and the GI50 ([1]; cell line HCC1428) was 4.38. For the same compound, the GI50 ([1]; cell line HCC1500) was 4.66, the GI50 ([1]; cell line HCC1806) was 4.30 and the GI50 ([1]; cell line HCC1937) was 4.30. For the same compound, the GI50 ([1]; cell line HCC1954) was 4.82, the GI50 ([1]; cell line HCC2185) was 5.69 and the GI50 ([1]; cell line MDAMB436) was 4.30. The GI50 ([1]; cell line MDAMB453) was 4.45, the GI50 ([1]; cell line SKBR3) was 5.22 and the GI50 ([1]; cell line SUM149PT) was 4.75. For the same compound, the GI50 ([1]; cell line SUM159PT) was 6.38, the GI50 ([1]; cell line SUM1315MO) was 6.21 and the GI50 ([1]; cell line UACC812) was 4.66. For the same compound, the GI50 ([1]; cell line ZR75B) was 6.60 and the GI50 ([1]; cell line ZR751) was 6.07.

Oxamflatin gave a GI50 [1, 3] of 6.19, a GI50 [1, 4] of 6.57 and a GI50 [1, 5] of 6.15. It also gave a GI50 [1, 6] of 6.27, a GI50 ([1]; HCC1143 cell line, censored GI50 values) of 6.28 and a GI50 [1, 19] of 6.19. For the same compound, the GI50 [1, 8] was 5.64, the GI50 [1, 9] was 5.88 and the GI50 ([1]; HCC1428 cell line, censored GI50 values) was 6.33. The GI50 [1, 10] was 5.98, the GI50 [1, 11] was 6.16 and the GI50 [1, 12] was 5.84. The GI50 [1, 13] was 5.81, the GI50 ([1]; cell line AU565) was 6.19 and the GI50 ([1]; cell line BT474) was 6.57. The GI50 ([1]; cell line BT483) was 6.15, the GI50 ([1]; cell line CAMA1) was 6.27 and the GI50 ([1]; cell line HCC38) was 6.77. The GI50 ([1]; cell line HCC70) was 6.35, the GI50 ([1]; cell line HCC1143) was 6.28 and the GI50 ([1]; cell line HCC1187) was 6.19. For the same compound, the GI50 ([1]; cell line HCC1395) was 5.64, the GI50 ([1]; cell line HCC1419) was 5.88 and the GI50 ([1]; cell line HCC1428) was 6.33. It also gave a GI50 ([1]; cell line HCC1500) of 5.98, a GI50 ([1]; cell line HCC1806) of 6.16 and a GI50 ([1]; cell line HCC1937) of 5.84. It also gave a GI50 ([1]; cell line HCC1954) of 5.81, a GI50 ([1]; cell line HCC2185) of 6.46 and a GI50 ([1]; cell line HCC3153) of 5.82. For the same compound, the GI50 ([1]; cell line LY2) was 5.88, the GI50 ([1]; cell line MDAMB134V) was 6.18 and the GI50 ([1]; cell line MDAMB175V) was 5.41. The GI50 ([1]; cell line MDAMB361) was 6.15, the GI50 ([1]; cell line MDAMB415) was 6.14 and the GI50 ([1]; cell line MDAMB453) was 6.56. It also gave a GI50 ([1]; cell line MDAMB468) of 5.57, a GI50 ([1]; cell line SKBR3) of 5.96 and a GI50 ([1]; cell line SUM52PE) of 6.22. It also gave a GI50 ([1]; cell line SUM149PT) of 6.17, a GI50 ([1]; cell line SUM159PT) of 6.50 and a GI50 ([1]; cell line SUM185PE) of 6.51. The GI50 ([1]; cell line SUM225CWN) was 6.07, the GI50 ([1]; cell line SUM1315MO) was 5.64 and the GI50 ([1]; cell line T47D) was 6.06. The GI50 ([1]; cell line UACC812) was 5.71 and the GI50 ([1]; cell line ZR75B) was 6.41.
